Data on ten compounds can be found in PubChem BioAssay (NCI).

Holding throughout (experiment): NCI anticancer screen, dose series, 48 h
Test [1] has as its system MDA-MB-435.
Test [2] has as its system NCI-H226 lung.
The subject of test [3] is NCI-H522 lung.
Test [4] relates to OVCAR-8 ovarian.
The test system of test [5] is NCI-H460 lung.
Test [6] concerns SN12C renal.
For test [7], the system named is MDA-MB-231 breast.
Test [8] has as its system PC-3 prostate.
Test [9] concerns KM12 colon.
For test [10], the system named is HCT-15 colon.

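Following 48 hours of exposure in 96-well plates, responses at five concentrations were used to interpolate endpoints linearly. At the GI50, growth is halved. TGI marks complete inhibition of growth.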

Regarding `COc1ccc(/C=C(/C)[N+](=O)[O-])cc1`, the TGI in test [1] is 4.16 µM; in test [2], 39.7 µM; in [3], 1.81 µM; in [4], 5.75 µM; in [5] it was 5.22 µM; in [6], 4.62 µM. For the same compound, the TGI in test [7] stood at 9.89 µM; in test [8] it was 5.04 µM; in test [9] it was 3.32 µM; in [10], 7.36 µM.

In the case of `CCc1c(O)c2c(c(O)c1C(C)=O)C(=O)c1c(cc(O)c(C(=O)O)c1C(=O)O)C2=O`, the TGI in [1], in [2], in test [3], in test [4], in test [5] and in test [6] was over 100 µM each time. In addition, the TGI in [7], in test [8], in test [9] and in test [10] was over 100 µM throughout.

`CC(O)(CNS(=O)(=O)c1ccccc1)c1ccccc1` (centres undefined): the TGI in [1], in test [2], in test [3], in test [4], in test [5] and in test [6] was over 100 µM each time. The TGI in [7], in [8], in test [9] and in test [10] was over 100 µM each time.

For the compound `COc1ccc(Cl)cc1NC(=O)c1cccc([N+](=O)[O-])c1O`, the TGI is over 100 µM in test [1]; 64.9 µM in [2]; 38.6 µM in test [3]; over 100 µM in [4]; over 81.2 µM in test [5]; over 75.3 µM in [6]. Also, the TGI in test [7] was over 100 µM; in [8], over 100 µM; in test [9], over 72 µM; in [10], over 100 µM.

For the compound `C1=C(c2ccccc2)SC=C(c2ccccc2)S1`, the TGI is 32.2 µM in test [1]; 81.8 µM in test [2]; over 100 µM in test [4]; over 100 µM in test [5]; over 100 µM in [6]; over 100 µM in test [7]. In addition, the TGI in [8], in [9] and in test [10] was over 100 µM in each case.

As to `COc1cc(-c2cc(/C=C3\C(=O)Nc4ccccc43)[nH]n2)cc(OC)c1OC`, the GI50 in test [1] is 2.38 µM; in test [2], 2.43 µM; in test [3] it was 1.99 µM; in test [4], 2.5 µM; in [5] it was 4.35 µM; in test [6], 3.58 µM. Also, the GI50 in [7] was 4.07 µM; in test [8], 2.14 µM; in test [9], 1.26 µM; in [10], 2.57 µM. For the same compound, the TGI in [1] came to 6.25 µM; in test [2] it was 15.5 µM; in test [3], 6.3 µM; in [4], 7.48 µM; in [5] it was 19 µM; in [6] it was 14.5 µM. Besides, the TGI in test [7] turned out to be 27.7 µM; in test [8], 10 µM; in test [9], 10.7 µM; in [10], 10.1 µM.

As to `O=C(CNc1ncco1)Nc1ccc(S(=O)(=O)c2ccc(NC(=O)CNc3ncco3)cc2)cc1`, the GI50 in test [1] is 2.08 µM; in test [2] it was 2.32 µM; in test [3], 1.48 µM; in [4], 2.4 µM; in test [5] it was 2.02 µM; in [6] it was 3.77 µM. Besides, the GI50 in test [7] was 2.66 µM; in test [8], 2.49 µM; in test [9], 1.74 µM; in test [10], 1.47 µM. For the same compound, the TGI in test [1] was determined as 7.26 µM; in [2], 7.09 µM; in [3], 3.14 µM; in test [4], 15.7 µM; in [5] it was 4.29 µM; in test [6], 14.7 µM. The TGI in test [7] amounted to 7.38 µM; in [8] it was 8.32 µM; in [9], 3.43 µM; in [10] it was 5.44 µM.

On to `[C-]#[N+][C@]12C(=O)[C@H](CCC1(C)C)C(C)(C)[C@H]1C(=O)N(C)c3cccc2c31`, for which the GI50 was 24.7 µM in [1]; over 100 µM in test [2]; 13.8 µM in test [4]; 5.02 µM in test [5]; 41.9 µM in [6]; over 100 µM in [7]. The GI50 in [8] is 3.27 µM; in [9] it was 9.99 µM; in [10], 58.5 µM. Moreover, the TGI in test [1], in [2], in test [4], in [5], in test [6] and in [7] was over 100 µM throughout. Further, the TGI in [8], in test [9] and in [10] was over 100 µM each time.

Take `O=[N+]([O-])c1ccc(/C=C(/c2ccc([N+](=O)[O-])o2)S(=O)(=O)c2ccccc2)o1`: the TGI stood at 29 µM in test [1]; 3.65 µM in [2]; 4.21 µM in test [3]; 18.3 µM in test [4]; 60.1 µM in [5]; 16.3 µM in [7]. In addition, the results for the TGI in test [8], in test [9] and in [10] were 30.1 µM, 32.6 µM and 26 µM, respectively.

Take `CNC(=O)OC1C(O[C@H]2C[C@H]3[C@@H]4CC=C5C[C@@H](O)CC[C@]5(C)[C@H]4CC[C@]3(C)[C@H]2[C@H](C)C(=O)CCC(C)C)OCC(O)C1OC1OCC(O)C(O)C1OC(=O)c1ccc(OC)cc1` (some centres undefined): the GI50 was 0.0203 µM in [1]; 0.0314 µM in test [3]; 2.82 µM in test [4]; 0.0115 µM in test [5]; 2.64 µM in test [6]; 0.103 µM in test [7]. Moreover, the GI50 was 0.01 µM in test [8], 0.106 µM in test [9] and 0.677 µM in test [10]. Moreover, the TGI is 0.359 µM in test [1]; 0.271 µM in test [3]; 11.2 µM in test [4]; 0.491 µM in [5]; 6.83 µM in test [6]; 4.62 µM in test [7]. Also, the TGI amounted to 0.447 µM in test [8], 4.97 µM in test [9] and 4.01 µM in [10].
